Drawing on PubChem BioAssay AID330 (DTP/NCI, 2004), this text covers T/C for 24 compounds.

Several values for one entry are separate records, joined by “and”; a condition that tells them apart may be missing. Equal values may be shown once. Inconclusive results and toxic doses are left out. Square brackets hold non-standard residues; d marks the D form. Peptide text beside a SMILES is read from it. * marks the point of attachment. ξ: configuration not given here. Cbz = O=C(OCc1ccccc1)*; ξV = CC(C)C(N)C(=O)O; Sar = CNCC(=O)O

The assay relates to P388 leukemia ip, CD2F1 mice, survival T/C. The assay can be described thus: NCI In Vivo Anticancer Drug Screen. Data for tumor model P388 Leukemia (intraperitoneal) in CD2F1 (CDF1) mice. Particulars: endpoint: median survival time, higher = longer survival. In short, it runs like this: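 Mice carrying the transplanted tumor received test compound or vehicle. Survival was recorded in each group, and the value is the treated-group measurement divided by that of the vehicle-treated control group.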

Setting [1] is: dose: 50.0 mg/kg/injection, schedule: Q01DX009 (ip), vehicle: saline with Tween-80.
Setting [2] is: dose: 100.0 mg/kg/injection, schedule: Q01DX009 (ip), vehicle: saline with Tween-80.
[3] abbreviates: dose: 200.0 mg/kg/injection, schedule: Q01DX009 (ip), vehicle: saline with Tween-80.
[4] abbreviates: dose: 60.0 mg/kg/injection, schedule: Q01DX005 (ip), vehicle: Klucel (hydroxypropylcellulose) (HPC).
[5] abbreviates: dose: 120.0 mg/kg/injection, schedule: Q01DX005 (ip), vehicle: Klucel (hydroxypropylcellulose) (HPC).
The mark [6] stands for this setting: dose: 100.0 mg/kg/injection, schedule: Q04DX002 (ip), vehicle: saline with Tween-80.
[7] abbreviates: dose: 50.0 mg/kg/injection, schedule: Q01DX005 (ip), vehicle: saline with Tween-80.
Where [8] appears, read: dose: 100.0 mg/kg/injection, schedule: Q01DX005 (ip), vehicle: saline with Tween-80.
Where [9] appears, read: dose: 50.0 mg/kg/injection, schedule: Q01DX005 (ip), vehicle: Klucel (hydroxypropylcellulose) (HPC).
The mark [10] stands for this setting: dose: 100.0 mg/kg/injection, schedule: Q01DX005 (ip), vehicle: Klucel (hydroxypropylcellulose) (HPC).
Where [11] appears, read: dose: 200.0 mg/kg/injection, schedule: Q01DX005 (ip), vehicle: Klucel (hydroxypropylcellulose) (HPC).
Setting [12] is: dose: 25.0 mg/kg/injection, schedule: Q01DX005 (ip), vehicle: saline with Tween-80.
Setting [13] is: dose: 100.0 mg/kg/injection, schedule: Q01DX001 (ip), vehicle: Klucel (hydroxypropylcellulose) (HPC).
Setting [14] is: dose: 200.0 mg/kg/injection, schedule: Q01DX001 (ip), vehicle: Klucel (hydroxypropylcellulose) (HPC).
The mark [15] stands for this setting: dose: 400.0 mg/kg/injection, schedule: Q01DX001 (ip), vehicle: Klucel (hydroxypropylcellulose) (HPC).

`COc1cc2c[n+](C)c(-c3ccc(Cl)c(Cl)c3)c(OC)c2cc1OC`: the T/C (dose: 12.5 mg/kg/injection, schedule: Q04DX003 (ip), vehicle: saline) is 101 % of control; the T/C (dose: 25.0 mg/kg/injection, schedule: Q04DX003 (ip), vehicle: saline) is 100 % of control; the T/C (dose: 50.0 mg/kg/injection, schedule: Q04DX003 (ip), vehicle: saline) was 100 % of control.

`O=C(O)CC(=O)O.[NH-]C1CCCC([NH-])C1.[Pt+2]` (centres undefined): the T/C is, setting by setting: (dose: 12.5 mg/kg/injection, schedule: Q04DX002 (ip), vehicle: saline with Tween-80) 157 % of control; (dose: 25.0 mg/kg/injection, schedule: Q04DX002 (ip), vehicle: saline with Tween-80) 180 % of control.

As for `O=C(CBr)Nc1c(Br)cc(Cl)cc1Br`, the T/C under setting [1] was 100 % of control, the T/C under setting [2] was 88 % of control and the T/C under setting [3] was 100 % of control.

`Cc1ccc(S(=O)(=O)C2(NC(=O)c3ccc(Cl)cc3)CC2)cc1`: the T/C runs as follows: (dose: 30.0 mg/kg/injection, schedule: Q01DX005 (ip), vehicle: Klucel (hydroxypropylcellulose) (HPC)) 92 % of control and 94 % of control; under setting [4], 93 % of control; under setting [5], 86 % of control and 91 % of control and 92 % of control.

As for `C1CN2CCN1CC2.[Cl][Pt]([Cl])[Cl]`, the T/C under setting [6] is 117 % of control and the T/C (dose: 200.0 mg/kg/injection, schedule: Q04DX002 (ip), vehicle: saline with Tween-80) was 117 % of control.

Turning to `CSc1nc2c(nnn2C2OCC(O)C(O)C2O)c(=O)[nH]1` (centres undefined), the T/C reads like this: (dose: 60.0 mg/kg/injection, schedule: Q01DX005 (ip), vehicle: saline with Tween-80) 93 % of control; (dose: 120.0 mg/kg/injection, schedule: Q01DX005 (ip), vehicle: saline with Tween-80) 93 % of control; (dose: 240.0 mg/kg/injection, schedule: Q01DX005 (ip), vehicle: saline with Tween-80) 86 % of control.

Take `O=C(C[n+]1ccsc1Br)c1ccccc1`: the T/C was 102 % of control under setting [7] and 119 % of control under setting [8].

With `CCOCCOCCOc1cccc2cccnc12`, the T/C by setting is: under setting [9], 103 % of control; under setting [10], 107 % of control; under setting [11], 107 % of control.

Regarding `O=C(O)c1cc(C(=O)O)cc([N+](=O)[O-])c1`, the T/C by setting is: (dose: 25.0 mg/kg/injection, schedule: Q04DX003 (ip), vehicle: saline with Tween-80) 100 % of control; (dose: 50.0 mg/kg/injection, schedule: Q04DX003 (ip), vehicle: saline with Tween-80) 100 % of control; (dose: 100.0 mg/kg/injection, schedule: Q04DX003 (ip), vehicle: saline with Tween-80) 100 % of control.

As to `Nc1ccc2c(C(F)(F)F)cc(=O)[nH]c2c1`, the T/C runs as follows: under setting [12], 100 % of control; under setting [7], 91 % of control; under setting [8], 92 % of control.

As to `O=C1OC(=O)C2C3OC(C(Br)C3Br)C12` (centres undefined), the T/C by setting is: under setting [9], 102 % of control; under setting [10], 98 % of control.

As for `C=CC(c1ccccc1)c1cc2c(cc1OC)OCO2` (centres undefined), the T/C runs as follows: under setting [7], 105 % of control; under setting [8], 96 % of control; (dose: 200.0 mg/kg/injection, schedule: Q01DX005 (ip), vehicle: saline with Tween-80) 100 % of control.

Turning to `NC(=O)c1nsc(-c2ccc([N+](=O)[O-])cc2)c1N`, the T/C reads like this: under setting [9], 101 % of control; under setting [10], 96 % of control; under setting [11], 92 % of control.

For `O=C(Nc1ccccc1)OCC1CC1`, the T/C is, setting by setting: under setting [1], 99 % of control; under setting [2], 115 % of control; under setting [3], 96 % of control; (dose: 400.0 mg/kg/injection, schedule: Q01DX009 (ip), vehicle: saline with Tween-80) 89 % of control.

For the compound `C[C@@H]1C(=O)O[C@H]2[C@H]1CC[C@@]1(C)C=C(Cl)C(=O)[C@@H](C)[C@H]21`, the T/C runs as follows: (dose: 50.0 mg/kg/injection, schedule: Q04DX002 (ip), vehicle: saline with Tween-80) 100 % of control; under setting [6], 117 % of control.

As to `CNC(=O)OCc1c(Cl)nc2sccn12`, the T/C is 109 % of control under setting [13], 100 % of control under setting [14] and 100 % of control under setting [15].

As for `NC(=N\O)/C(N)=N\O`, the T/C runs as follows: (dose: 50.0 mg/kg/injection, schedule: Q01DX009 (ip), vehicle: Klucel (hydroxypropylcellulose) (HPC)) 100 % of control; (dose: 100.0 mg/kg/injection, schedule: Q01DX009 (ip), vehicle: Klucel (hydroxypropylcellulose) (HPC)) 98 % of control; (dose: 200.0 mg/kg/injection, schedule: Q01DX009 (ip), vehicle: Klucel (hydroxypropylcellulose) (HPC)) 106 % of control.

As for `CCOP(O)(=S)OCC`, the T/C reads like this: (dose: 12.5 mg/kg/injection, schedule: Q01DX001 (ip), vehicle: saline) 94 % of control; (dose: 25.0 mg/kg/injection, schedule: Q01DX001 (ip), vehicle: saline) 100 % of control; under setting [13], 89 % of control; (dose: 100.0 mg/kg/injection, schedule: Q01DX001 (ip), vehicle: saline) 103 % of control; (dose: 100.0 mg/kg/injection, schedule: Q04DX003 (ip), vehicle: Klucel (hydroxypropylcellulose) (HPC)) 92 % of control; (dose: 100.0 mg/kg/injection, schedule: Q04DX003 (ip), vehicle: saline) 88 % of control. Moreover, the T/C runs as follows: under setting [14], 108 % of control; (dose: 200.0 mg/kg/injection, schedule: Q01DX001 (ip), vehicle: saline) 98 % of control and 106 % of control; (dose: 200.0 mg/kg/injection, schedule: Q04DX003 (ip), vehicle: Klucel (hydroxypropylcellulose) (HPC)) 89 % of control; (dose: 200.0 mg/kg/injection, schedule: Q04DX003 (ip), vehicle: saline) 90 % of control; under setting [15], 92 % of control; (dose: 400.0 mg/kg/injection, schedule: Q01DX001 (ip), vehicle: saline) 108 % of control and 106 % of control. Further, the T/C reads like this: (dose: 400.0 mg/kg/injection, schedule: Q04DX003 (ip), vehicle: Klucel (hydroxypropylcellulose) (HPC)) 90 % of control; (dose: 400.0 mg/kg/injection, schedule: Q04DX003 (ip), vehicle: saline) 101 % of control.

Take `O=C(O)c1cc(N=Nc2ccc(-c3ccc(N=Nc4c(S(=O)(=O)O)cc5cc(Nc6ccccc6)ccc5c4O)cc3)cc2)ccc1O`: the T/C (dose: 50.0 mg/kg/injection, schedule: Q01DX005 (ip), vehicle: saline) is 107 % of control; the T/C (dose: 100.0 mg/kg/injection, schedule: Q01DX005 (ip), vehicle: saline) was 114 % of control; the T/C (dose: 200.0 mg/kg/injection, schedule: Q01DX005 (ip), vehicle: saline) was 112 % of control.

Regarding `COc1ccc2c3c(cccc13)-c1ccccc1C2=O`, the T/C (dose: 6.25 mg/kg/injection, schedule: Q01DX005 (ip), vehicle: saline with Tween-80) is 95 % of control; the T/C (dose: 12.5 mg/kg/injection, schedule: Q01DX005 (ip), vehicle: saline with Tween-80) was 91 % of control; the T/C under setting [12] was 93 % of control.

Consider `COC(=O)C1=NNC2(c3ccccc3Sc3ccccc32)C1C(=O)OC` (centres undefined), for which the T/C by setting is: under setting [9], 90 % of control; under setting [10], 92 % of control; under setting [11], 90 % of control.

Take `C#C/C=C/CC1OC(C(Br)CC)/C=C\CCC1Cl` (centres undefined): the T/C runs as follows: (dose: 2.0 mg/kg/injection, schedule: Q01DX009 (ip), vehicle: Klucel (hydroxypropylcellulose) (HPC)) 94 % of control; (dose: 4.0 mg/kg/injection, schedule: Q01DX009 (ip), vehicle: Klucel (hydroxypropylcellulose) (HPC)) 98 % of control; (dose: 8.0 mg/kg/injection, schedule: Q01DX009 (ip), vehicle: Klucel (hydroxypropylcellulose) (HPC)) 103 % of control; (dose: 16.0 mg/kg/injection, schedule: Q01DX009 (ip), vehicle: Klucel (hydroxypropylcellulose) (HPC)) 94 % of control.

On to `S=C(N/N=C\c1c[nH]c2ccc(Br)cc12)NC12CC3CC(CC(C3)C1)C2`, for which the T/C is, setting by setting: under setting [4], 98 % of control; under setting [5], 93 % of control; (dose: 240.0 mg/kg/injection, schedule: Q01DX005 (ip), vehicle: Klucel (hydroxypropylcellulose) (HPC)) 98 % of control.

In the case of `CC(C)C(NC(=O)CN(C)C(=O)OCc1ccccc1)C(=O)O` (centres undefined) (Cbz-[Sar]-[ξV]-OH), the T/C under setting [7] was 100 % of control and the T/C under setting [8] was 102 % of control.
